Data reported in patent US11078277B2, “Methods and pharmaceutical compositions for enhancing CD8+ T cell-dependent immune responses in subjects suffering from cancer” (INSERM (INSTITUT NATIONAL DE LA SANTE ET DE LA RECHERCHE …, priority 2016, dated 2021).

Test system: Smpd3 expression
Test: Smpd3 expression by RT-qPCR in B16K1 melanoma cells incubated with 5-aza or TSA
Assay type: cell-based, murine
Protocol: A, B16K1 cells expressing (2+) or not (2−) V5-tagged nSMase 2 were analyzed by Western blot using anti-V5 and anti-β-actin antibodies. B, Neutral SMase activity in B16K1 nSMase 2+ (2+) and nSMase 2− (2−) as well as in mock-transfected B16K1 cells. C, Intracellular ceramide levels in B16K1 nSMase 2+(2+) and nSMase 2− (2−) as well as in mock-tranfected B16K1 cells. Data are expressed as the % of values obtained with mock-transfected B16K1 cells. Values are shown as means±sem of 3 independent experiments (B and C). D, In vitro B16K1 cell growth was evaluated in 10% FCS medium (left panel) or 0% FCS medium ([…]). […] Cells were analysed by Western blot using anti-V5 and anti-β-actin antibodies. […] Data are shown as means±sem of 3 independent experiments. (*: p<0.05; **: p<0.01). G, B16K1 melanoma cells were incubated or not with 1 μM of 5 aza-2 deoxycitidine (5-aza) during 72 hours or with 0.1 μM Trichostatine A (TSA) during the last 16 hours. Smpd3 expression was analysed by RT-qPCR. Data are shown as means±sem of 3 independent experiments.
RNA isolation and qRT-PCR. RNA isolation from cells and exosomes was performed by using the Qiagen RNeasy mini kit and Qiagen miRNeasy kit respectively, according to manufacturer's instructions. […]

SMILES | Smpd3 expression (1 μM 5-aza during 72 hours) | Smpd3 expression (0.1 μM TSA during the last 16 hours)
Nc1ncn([C@@H]2O[C@H](CO)[C@@H](O)[C@H]2O)c(=O)n1 [5-Azacytidine] | not | 
CC(/C=C/C(=O)NO)=C\[C@@H](C)C(=O)c1ccc(N(C)C)cc1 [trichostatin A] |  | greatly enhanced
